Laboratory results: paper PMC7044277 (Nature Communications, 2020)
Several values for one entry are separate records, joined by “and”; a condition that tells them apart may be missing. Identical values can stand only once.

Experiments:
Assay type in all cases: cell-based
Set-up in all cases: GPCRome screening signal at PTGIR / GPCRome screening signal at PTH1R / GPCRome screening signal at PTH2R / GPCRome screening signal at QRFP / GPCRome screening signal at RXFP2 / GPCRome screening signal at RXFP3 / GPCRome screening signal at RXFP4 / GPCRome screening signal at S1PR2 / GPCRome screening signal at S1PR3 / GPCRome screening signal at S1PR4 / GPCRome screening signal at S1PR5 / GPCRome screening signal at SCTR / GPCRome screening signal at SSTR2 / GPCRome screening signal at SSSTR / GPCRome screening signal at SSTR4 / GPCRome screening signal at SSTR5 / GPCRome screening signal at SUCNR1 / GPCRome screening signal at TA1 / GPCRome screening signal at TAAR2 / GPCRome screening signal at TAAR5 / GPCRome screening signal at TAAR6 / GPCRome screening signal at TAAR8 / GPCRome screening signal at TACR1 / GPCRome screening signal at TACR2 / GPCRome screening signal at TACR3 / GPCRome screening signal at TBXA2R / GPCRome screening signal at TSHR / GPCRome screening signal at UTS2R / GPCRome screening signal at VIPR2 / GPCRome screening signal at GPR68 no V2 Tail / GPCRome screening signal at GRM2 / GPCRome screening signal at GRM3: reference not given here
320 non-olfactory GPCRs [1] = target: 320 non-olfactory GPCRs (Homo sapiens, UniProt P25103); details: receptor TACR1
320 non-olfactory GPCRs (Homo sapiens, UniProt P25103), sequence (P25103 whole entry): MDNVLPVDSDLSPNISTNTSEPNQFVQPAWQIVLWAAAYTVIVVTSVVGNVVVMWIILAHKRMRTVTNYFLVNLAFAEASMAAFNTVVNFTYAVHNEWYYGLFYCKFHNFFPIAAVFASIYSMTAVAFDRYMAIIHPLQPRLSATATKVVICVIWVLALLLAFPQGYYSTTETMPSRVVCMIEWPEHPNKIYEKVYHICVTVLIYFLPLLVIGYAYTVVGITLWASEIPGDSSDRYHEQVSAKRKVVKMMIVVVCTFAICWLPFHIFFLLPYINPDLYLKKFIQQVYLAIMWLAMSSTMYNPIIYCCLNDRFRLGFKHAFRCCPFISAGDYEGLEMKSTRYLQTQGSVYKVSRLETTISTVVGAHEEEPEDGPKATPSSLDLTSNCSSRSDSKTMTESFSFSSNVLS

320 non-olfactory GPCRs [2] = target: T1, 320 non-olfactory GPCRs (Homo sapiens, UniProt Q14832); details: receptor GRM3
T1 construct: expressed in transfected cells; host or cells: HTLA cells
T1 sequence (Q14832 23-879): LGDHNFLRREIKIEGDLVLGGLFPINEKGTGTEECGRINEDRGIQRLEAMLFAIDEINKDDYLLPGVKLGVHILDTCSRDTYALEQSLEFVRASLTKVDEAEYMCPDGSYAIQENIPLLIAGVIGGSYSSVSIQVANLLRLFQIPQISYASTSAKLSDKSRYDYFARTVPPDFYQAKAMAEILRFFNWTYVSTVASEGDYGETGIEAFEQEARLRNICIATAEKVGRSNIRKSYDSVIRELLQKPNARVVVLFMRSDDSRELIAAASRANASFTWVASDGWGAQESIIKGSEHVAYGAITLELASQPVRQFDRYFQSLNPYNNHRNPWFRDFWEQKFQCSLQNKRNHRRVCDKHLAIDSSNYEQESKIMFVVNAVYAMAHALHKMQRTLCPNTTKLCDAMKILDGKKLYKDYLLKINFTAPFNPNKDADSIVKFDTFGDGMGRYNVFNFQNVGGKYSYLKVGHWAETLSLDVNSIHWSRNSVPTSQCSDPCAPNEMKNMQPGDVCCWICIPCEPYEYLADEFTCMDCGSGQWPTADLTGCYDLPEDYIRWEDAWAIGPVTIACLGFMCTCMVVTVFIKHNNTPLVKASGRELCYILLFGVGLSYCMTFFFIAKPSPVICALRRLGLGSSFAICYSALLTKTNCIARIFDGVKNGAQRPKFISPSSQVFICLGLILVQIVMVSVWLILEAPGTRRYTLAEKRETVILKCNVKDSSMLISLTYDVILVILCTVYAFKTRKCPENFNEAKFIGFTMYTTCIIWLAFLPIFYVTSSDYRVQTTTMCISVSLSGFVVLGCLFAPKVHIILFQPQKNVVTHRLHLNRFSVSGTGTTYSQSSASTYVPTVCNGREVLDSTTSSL

320 non-olfactory GPCRs [3] = target: T2, 320 non-olfactory GPCRs (Homo sapiens, UniProt Q96RI8); details: receptor TAAR6
T2 construct: expressed in transfected cells; host or cells: HTLA cells
T2 sequence (Q96RI8 whole entry): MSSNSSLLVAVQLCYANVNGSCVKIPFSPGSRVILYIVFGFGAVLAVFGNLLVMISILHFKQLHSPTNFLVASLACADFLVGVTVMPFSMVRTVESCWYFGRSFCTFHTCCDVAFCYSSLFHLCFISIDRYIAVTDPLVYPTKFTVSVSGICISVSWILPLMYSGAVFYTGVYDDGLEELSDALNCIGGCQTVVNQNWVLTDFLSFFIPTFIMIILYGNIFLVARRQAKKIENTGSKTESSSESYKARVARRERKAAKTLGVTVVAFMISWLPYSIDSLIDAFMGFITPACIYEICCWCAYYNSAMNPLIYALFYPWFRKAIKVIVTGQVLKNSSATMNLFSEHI

320 non-olfactory GPCRs [4] = target: 320 non-olfactory GPCRs (Homo sapiens, UniProt Q9H228); details: receptor S1PR5
320 non-olfactory GPCRs (Homo sapiens, UniProt Q9H228), sequence (Q9H228 whole entry): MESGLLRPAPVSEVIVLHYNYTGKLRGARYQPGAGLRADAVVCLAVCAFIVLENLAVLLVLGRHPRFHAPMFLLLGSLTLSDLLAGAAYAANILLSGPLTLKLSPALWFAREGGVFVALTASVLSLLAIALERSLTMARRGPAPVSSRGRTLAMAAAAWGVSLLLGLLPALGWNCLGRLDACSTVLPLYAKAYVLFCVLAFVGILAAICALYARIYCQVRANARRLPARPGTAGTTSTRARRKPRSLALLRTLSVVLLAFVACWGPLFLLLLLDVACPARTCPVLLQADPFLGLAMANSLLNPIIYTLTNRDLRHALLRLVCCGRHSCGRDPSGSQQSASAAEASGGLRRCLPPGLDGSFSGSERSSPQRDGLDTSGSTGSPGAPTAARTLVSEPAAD

[5] = Fig_5f, single replicate values
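For GPCRome agonism screen response in this document: fold over basal response of each receptor without drug.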

Row | GPCRome screening signal at TACR1 (320 non-olfactory GPCRs [1]; [5]) | GPCRome screening signal at GRM3 (320 non-olfactory GPCRs [2]; [5]) | GPCRome screening signal at TAAR6 (320 non-olfactory GPCRs [3]; [5]) | GPCRome screening signal at S1PR5 (320 non-olfactory GPCRs [4]; [5]) | Structure (SMILES) | GPCRome agonism screen response (320 non-olfactory GPCRs [1]; replicate values, Fig_4g) | GPCRome agonism screen response (320 non-olfactory GPCRs [2]; replicate values, Fig_4g) | GPCRome agonism screen response (320 non-olfactory GPCRs [3]; replicate values, Fig_4g) | GPCRome agonism screen response (320 non-olfactory GPCRs [4]; replicate values, Fig_4g)
1 | 1.29 and 1.225 and 0.9839 and 1.172 | 0.4086 and 1.387 and 0.6216 and 1.325 | 0.9086 and 0.7284 and 0.9687 and 0.7288 | 0.8048 and 0.6191 and 0.7126 and 0.9361 | CCOc1ccccc1CCC(C)NCC1(O)CCCCC1.Cl (racemic) [Fig_5f] | – | – | – | –
2 | – | – | – | – | CCOc1cccc2cc(C(C)NCC3(O)CCCCC3)oc12 (centres unmarked) [O4LE6] | 1.178 and 0.9848 and 1.177 and 1.1855 | 0.5635 and 0.5272 and 0.9256 and 1.931 | 1.686 and 0.9412 and 0.4865 and 0.01025 | 0.6595 and 0.787 and 0.6694 and 0.8628
